Measured values as given in patent US20260262643A1, “HERBICIDAL BENZOXAZINES” (FMC CORPORATION, priority 2022, published 2026).

Legend:
blackgrass [1] = experiment: Test C preemergence; format: in vivo, Alopecurus myosuroides; conditions: for Plant response rating, Blackgrass: Preemergence; for Blackgrass plant response rating: preemergence
How it was run: (§1)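 Pre: seeds in loam/sand, directed soil spray. Post: 1–2 leaf plants, 2–10 cm. Cmpd in non-phytotoxic solvent + surfactant. Greenhouse 10 d; visual rating vs untreated, 0 = none, 100 = complete control.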

pigweed, palmer [2] = experiment: Test C postemergence; format: in vivo, Amaranthus palmeri; conditions: 10 days
How it was run: as §1

ryegrass, Italian [3] = experiment: Test C preemergence; format: in vivo, Lolium multiflorum; conditions: for Plant response rating, Ryegrass, Italian: Preemergence; for Ryegrass, Italian plant response rating: preemergence
How it was run: as §1

rice = experiment: Test D flooded paddy test; format: in vivo, Oryza sativa; conditions: 250 g ai/ha, applied to paddy water, visual rating after 13 to 14 days, scale 0 to 100 (0 no effect, 100 complete control)
How it was run: (§2)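 At the 2-leaf stage, floodwater 3 cm deep received the test compound; that depth persisted throughout. Plants scored visually 13 to 14 days on, 0 (no effect) to 100 (complete control), dash indicating no result.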

oat, wild [4] = experiment: Test C preemergence; format: in vivo, Avena fatua; conditions: for Plant response rating, Oat, Wild: Preemergence; for Oat, Wild plant response rating: preemergence
How it was run: as §1

barnyardgrass [5] = experiment: Test D flooded paddy test; format: in vivo, Echinochloa crus-galli; conditions: 250 g ai/ha, applied to paddy water, visual rating after 13 to 14 days, scale 0 to 100 (0 no effect, 100 complete control)
How it was run: as §2

ryegrass, Italian [6] = experiment: Test C postemergence; format: in vivo, Lolium multiflorum; conditions: 10 days
How it was run: as §1

soybean [7] = experiment: Test C preemergence; format: in vivo, Glycine max; conditions: for Plant response rating, Soybean: Preemergence; for Soybean plant response rating: preemergence
How it was run: as §1

kochia [8] = experiment: Test C postemergence; format: in vivo, Bassia scoparia; conditions: 10 days
How it was run: as §1

oat, wild [9] = experiment: Test C postemergence; format: in vivo, Avena fatua; conditions: 10 days
How it was run: as §1

sedge, umbrella = experiment: Test D flooded paddy test; format: in vivo, Cyperus difformis; conditions: 250 g ai/ha, applied to paddy water, visual rating after 13 to 14 days, scale 0 to 100 (0 no effect, 100 complete control)
How it was run: as §2

corn [10] = experiment: Test C postemergence; format: in vivo, Zea mays; conditions: 10 days
How it was run: as §1

green foxtail [11] = experiment: Test C preemergence; format: in vivo, Setaria viridis; conditions: for Plant response rating, Foxtail, Green: Preemergence; for Foxtail, Green plant response rating: preemergence
How it was run: as §1

barnyardgrass [12] = experiment: Test C preemergence; format: in vivo, Echinochloa crusgalli; conditions: for Barnyardgrass plant response rating: preemergence; for Plant response rating, Barnyardgrass: Preemergence
How it was run: as §1

blackgrass [13] = experiment: Test C postemergence; format: in vivo, Alopecurus myosuroides; conditions: 10 days
How it was run: as §1

ragweed [14] = experiment: Test C postemergence; format: in vivo, Ambrosia artemisiifolia; conditions: 10 days
How it was run: as §1

horseweed = experiment: Test C postemergence; format: in vivo, Erigeron canadensis; conditions: 10 days
How it was run: as §1

wheat [15] = experiment: Test C preemergence; format: in vivo, Triticum aestivum; conditions: for Plant response rating, Wheat: Preemergence; for Wheat plant response rating: preemergence
How it was run: as §1

ducksalad = experiment: Test D flooded paddy test; format: in vivo, Heteranthera limosa; conditions: 250 g ai/ha, applied to paddy water, visual rating after 13 to 14 days, scale 0 to 100 (0 no effect, 100 complete control)
How it was run: as §2

ragweed [16] = experiment: Test C preemergence; format: in vivo, Ambrosia artemisiifolia; conditions: for Plant response rating, Ragweed: Preemergence; for Ragweed plant response rating: preemergence
How it was run: as §1

barnyardgrass [17] = experiment: Test C postemergence; format: in vivo, Echinochloa crusgalli; conditions: 10 days
How it was run: as §1

wheat [18] = experiment: Test C postemergence; format: in vivo, Triticum aestivum; conditions: 10 days
How it was run: as §1

green foxtail [19] = experiment: Test C postemergence; format: in vivo, Setaria viridis; conditions: 10 days
How it was run: as §1

galium = experiment: Test C postemergence; format: in vivo, Galium aparine; conditions: 10 days
How it was run: as §1

corn [20] = experiment: Test C preemergence; format: in vivo, Zea mays; conditions: for Plant response rating, Corn: Preemergence; for Corn plant response rating: preemergence
How it was run: as §1

pigweed, palmer [21] = experiment: Test C preemergence; format: in vivo, Amaranthus palmeri; conditions: for Plant response rating, Pigweed, Palmer: Preemergence; for Pigweed, Palmer plant response rating: preemergence
How it was run: as §1

soybean [22] = experiment: Test C postemergence; format: in vivo, Glycine max; conditions: 10 days
How it was run: as §1

kochia [23] = experiment: Test C preemergence; format: in vivo, Bassia scoparia; conditions: for Plant response rating, Kochia: Preemergence; for Kochia plant response rating: preemergence
How it was run: as §1

[24] = 500 g ai/ha, visual rating after 10 days, 0 to 100 scale (0 no effect, 100 complete control)
[25] = Test C, 125 g ai/ha, 0 to 100 scale (0 no effect, 100 complete control)
[26] = 125 g ai/ha, postemergence, 0 to 100 scale, 0 no effect, 100 complete control
[27] = Postemergence, 500 g ai/ha, visual 0 to 100 scale (0 no effect, 100 complete control)
[28] = 500 g ai/ha, 0 to 100 scale (0 no effect, 100 complete control)
[29] = 125 g ai/ha, 0 to 100 scale, 0 no effect, 100 complete control
[30] = 500 g ai/ha, postemergence, 0 to 100 scale (0 no effect, 100 complete control)
[31] = Postemergence, 125 g ai/ha, 0 to 100 scale (0 no effect, 100 complete control)

SMILES: C[C@H]1CN(C(=O)c2cc(-n3cncn3)cc3c2OCCO3)c2cccc(Cl)c2O1 [Compound 153]
- Plant response rating, Blackgrass (blackgrass [1]; [24]): 60
- Blackgrass plant response rating (blackgrass [1]; [25]): 20
- Plant response rating, Pigweed, Palmer (pigweed, palmer [2]; [26]): 70
- Plant response rating, Pigweed, Palmer (pigweed, palmer [2]; [27]): 100
- Plant response rating, Ryegrass, Italian (ryegrass, Italian [3]; [24]): 90
- Ryegrass, Italian plant response rating (ryegrass, Italian [3]; [25]): 90
- Plant response rating, Rice (Flood) (rice): 15
- Plant response rating, Oat, Wild (oat, wild [4]; [24]): 80
- Oat, Wild plant response rating (oat, wild [4]; [25]): 40
- Plant response rating, Barnyardgrass (Flood) (barnyardgrass [5]): 35
- Plant response rating, Ryegrass, Italian (ryegrass, Italian [6]; [26]): 90
- Plant response rating, Ryegrass, Italian (ryegrass, Italian [6]; [27]): 100
- Plant response rating, Soybean (soybean [7]; [24]): 100
- Soybean plant response rating (soybean [7]; [25]): 100
- Plant response rating, Kochia (kochia [8]; [26]): 60
- Plant response rating, Kochia (kochia [8]; [27]): 90
- Plant response rating, Oat, Wild (oat, wild [9]; [26]): 50
- Plant response rating, Oat, Wild (oat, wild [9]; [27]): 70
- Plant response rating, Sedge, Umbrella (Flood) (sedge, umbrella): 98
- Plant response rating, Corn (corn [10]; [26]): 80
- Plant response rating, Corn (corn [10]; [27]): 90
- Plant response rating, Foxtail, Green (green foxtail [11]; [24]): 100
- Foxtail, Green plant response rating (green foxtail [11]; [25]): 100
- Barnyardgrass plant response rating (barnyardgrass [12]; 125 g ai/ha, 0 to 100 scale (0 no effect, 100 complete control)): 80
- Plant response rating, Barnyardgrass (barnyardgrass [12]; [24]): 100
- Plant response rating, Blackgrass (blackgrass [13]; [26]): 90
- Plant response rating, Blackgrass (blackgrass [13]; [27]): 90
- Plant response rating, Ragweed (ragweed [14]; [26]): 80
- Plant response rating, Ragweed (ragweed [14]; [27]): 100
- Plant response rating, Horseweed (horseweed; [26]): 60
- Plant response rating, Horseweed (horseweed; [27]): 50
- Plant response rating, Wheat (wheat [15]; [24]): 90
- Wheat plant response rating (wheat [15]; [25]): 20
- Plant response rating, Ducksalad (Flood) (ducksalad): 70
- Plant response rating, Ragweed (ragweed [16]; [24]): 100
- Ragweed plant response rating (ragweed [16]; [25]): 80
- Plant response rating, Barnyardgrass (barnyardgrass [17]; [26]): 90
- Plant response rating, Barnyardgrass (barnyardgrass [17]; [27]): 90
- Plant response rating, Wheat (wheat [18]; [26]): 90
- Plant response rating, Wheat (wheat [18]; [27]): 90
- Plant response rating, Foxtail, Green (green foxtail [19]; [26]): 90
- Plant response rating, Foxtail, Green (green foxtail [19]; [27]): 90
- Plant response rating, Galium (galium; [26]): 90
- Plant response rating, Galium (galium; [27]): 100
- Plant response rating, Corn (corn [20]; [24]): 30
- Corn plant response rating (corn [20]; [25]): 10
- Plant response rating, Pigweed, Palmer (pigweed, palmer [21]; [24]): 100
- Pigweed, Palmer plant response rating (pigweed, palmer [21]; [25]): 100
- Plant response rating, Soybean (soybean [22]; [26]): 100
- Plant response rating, Soybean (soybean [22]; [27]): 100
- Plant response rating, Kochia (kochia [23]; [24]): 60
- Kochia plant response rating (kochia [23]; [25]): 0

SMILES: CC(C)c1ncn(-c2ccc([S+](C)[O-])c(C(=O)N3C[C@H](C)Oc4c(Cl)cccc43)c2)n1 (some centres unmarked) [Compound 394]
- Blackgrass plant response rating (blackgrass [1]; [28]): 90
- Plant response rating, Blackgrass (blackgrass [1]; [29]): 30
- Plant response rating, Pigweed, Palmer (pigweed, palmer [2]; [30]): 80
- Plant response rating, Pigweed, Palmer (pigweed, palmer [2]; [31]): 80
- Ryegrass, Italian plant response rating (ryegrass, Italian [3]; [28]): 90
- Plant response rating, Ryegrass, Italian (ryegrass, Italian [3]; [29]): 60
- Plant response rating, Rice (Flood) (rice): 0
- Oat, Wild plant response rating (oat, wild [4]; [28]): 90
- Plant response rating, Oat, Wild (oat, wild [4]; [29]): 30
- Plant response rating, Barnyardgrass (Flood) (barnyardgrass [5]): 15
- Plant response rating, Ryegrass, Italian (ryegrass, Italian [6]; [30]): 90
- Plant response rating, Ryegrass, Italian (ryegrass, Italian [6]; [31]): 50
- Soybean plant response rating (soybean [7]; [28]): 100
- Plant response rating, Soybean (soybean [7]; [29]): 20
- Plant response rating, Kochia (kochia [8]; [30]): 90
- Plant response rating, Kochia (kochia [8]; [31]): 90
- Plant response rating, Oat, Wild (oat, wild [9]; [30]): 70
- Plant response rating, Oat, Wild (oat, wild [9]; [31]): 50
- Plant response rating, Sedge, Umbrella (Flood) (sedge, umbrella): 0
- Plant response rating, Corn (corn [10]; [30]): 50
- Plant response rating, Corn (corn [10]; [31]): 20
- Foxtail, Green plant response rating (green foxtail [11]; [28]): 100
- Plant response rating, Foxtail, Green (green foxtail [11]; [29]): 100
- Barnyardgrass plant response rating (barnyardgrass [12]; [28]): 100
- Plant response rating, Barnyardgrass (barnyardgrass [12]; [29]): 70
- Plant response rating, Blackgrass (blackgrass [13]; [30]): 70
- Plant response rating, Blackgrass (blackgrass [13]; [31]): 50
- Plant response rating, Ragweed (ragweed [14]; [30]): 70
- Plant response rating, Ragweed (ragweed [14]; [31]): 70
- Plant response rating, Horseweed (horseweed; [30]): 20
- Plant response rating, Horseweed (horseweed; [31]): 0
- Wheat plant response rating (wheat [15]; [28]): 80
- Plant response rating, Wheat (wheat [15]; [29]): 20
- Plant response rating, Ducksalad (Flood) (ducksalad): 10
- Ragweed plant response rating (ragweed [16]; [28]): 50
- Plant response rating, Ragweed (ragweed [16]; [29]): 0
- Plant response rating, Barnyardgrass (barnyardgrass [17]; [30]): 70
- Plant response rating, Barnyardgrass (barnyardgrass [17]; [31]): 50
- Plant response rating, Wheat (wheat [18]; [30]): 50
- Plant response rating, Wheat (wheat [18]; [31]): 30
- Plant response rating, Foxtail, Green (green foxtail [19]; [30]): 90
- Plant response rating, Foxtail, Green (green foxtail [19]; [31]): 30
- Plant response rating, Galium (galium; [30]): 100
- Plant response rating, Galium (galium; [31]): 100
- Corn plant response rating (corn [20]; [28]): 30
- Plant response rating, Corn (corn [20]; [29]): 20
- Pigweed, Palmer plant response rating (pigweed, palmer [21]; [28]): 100
- Plant response rating, Pigweed, Palmer (pigweed, palmer [21]; [29]): 100
- Plant response rating, Soybean (soybean [22]; [30]): 100
- Plant response rating, Soybean (soybean [22]; [31]): 100
- Kochia plant response rating (kochia [23]; [28]): 100
- Plant response rating, Kochia (kochia [23]; [29]): 90
